Starred links: 1 amine or outer side, 2 acyl side, 3 side chain; linkers in the order of their positions; H or OH if unused. Non-standard residues stand in square brackets, D forms with d. Groups on a side chain read outwards from the residue. Primed or numbered codes have the meaning given here. No end group written: not given here. *: point of attachment. C18 diacid = O=C(O)CCCCCCCCCCCCCCCCC(=O)*; γGlu = O=C(O)[C@H](CCC(=O)[*:2])N[*:1]; Palmitoyl = CCCCCCCCCCCCCCCC(=O)*; PEG2′ = not defined here; Aib = CC(C)(N)C(=O)O
Key:
[1] = system: Hepatic stellate cell strain LX-2; assay: In vitro effect on expression of LX-2 cell activation marker α-SMA (Western Blot, β-actin reference); assay type: cell-based; details: LX-2 cells, 10.0 uM, 48 hours, negative control = 100%
Excerpt: Hepatic stellate cell strain LX-2 (from China Center for Type Culture Collection, Shanghai) was selected to study and observe the effects of polypeptide compounds 1-25 on the expression level of LX-2 cell activation marker α-smooth muscle actin (α-SMA). The control group was given the same volume of Dulbecco’s modified Eagle medium (DMEM) (from Gibco, United States), and β-actin (from TransGen Biotech) as the endogenous reference, wherein, α-SMA is a symbolic feature that distinguishes […] from myofibroblasts.
Hepatic stellate cell LX-2 was laid on 35 mm cell culture plate, cultured with DMEM (high glucose)+10% FBS+1% double-antibody culture medium (Thermo Fisher), placed overnight when the cells grew to 70% convergence at 37° C. under the condition of 5% CO2 without serum, and treated with the above GLP-1R/GCGR dual target agonist polypeptide derivatives (namely, polypeptide compounds 1-25) (dissolved in PBS) for 48 hours from the next morning to extract cell protein, and then Western Blot was performed with β-actin as endogenous reference to analyze the expression levels of α-SMA and β-actin by gray-scale analysis using Image J 1.50i. PBS with the same volume as that in experimental group was added in negative control.
The above polypeptide compounds 1-25 with a concentration of 10.0 µM were added, showing that they could reduce the expression of α-SMA at the concentration of 10.0 µM; and the negative control had no effect on the expression of α-SMA (referring to Table 2).
The integrated gray scale of α-SMA/β-actin in the negative control group was considered to be 100% to analyze the in vitro inhibitory activity on hepatic fibrosis by tested polypeptides.

[2] = system: HBV-infected humanized mouse liver; assay: Hepatic fibrosis of HBV-infected humanized mouse (hepatitis virus-infected humanized mouse fibrosis model); assay type: in vivo; details: 40 ug/Kg, intraperitoneal injection, once every other day for 3 weeks; for Accumulation of collagen fibers (FG/SR staining of liver) / Hepatic fibrosis and inflammation level (FG/SR and H&E staining of liver): compared with control group without administration; for Serum ALT: versus before administration
Procedure: In order to study the effect of the polypeptide compounds of the present invention in hepatic fibrosis associated with viral hepatitis, the polypeptide compounds of the present invention were used for hepatic fibrosis of HBV-infected humanized mouse. […] The specific steps are shown as follows:
Forty newborn NOD-scid IL-2Rγ-/- (NIKO) mice were bred.
These mice were injected with human stem cells for humanization (2 weeks).
Referring to FIG. 10, blood samples were taken to determine the humanization level by flow cytometry. All the mice used in the experiment expressed humanization according to in vivo concentrations of CD4 and CD8.
The mice were divided into 8 groups, fed with high-fat diet and infected with HBV (1 week).
The development of fibrosis in mice was monitored (8-10 weeks).
The polypeptide compounds 2, 5, 11, 15, 20, 23 and 25 were selected, which were stored at -20° C.
The above 40 mice were divided into 8 groups for injection treatment, with grouping and injection administration as follows: blank model control group (CTR), physiological saline, intraperitoneal injection, n=5. • 1) Administration group, polypeptide compound 2, 40 ug/Kg, intraperitoneal injection, n=5. • 2) Administration group, polypeptide compound 5, 40 ug/Kg, intraperitoneal injection, n=5. • 3) Administration group, polypeptide compound 11, 40 ug/Kg, intraperitoneal injection, n=5. • 4) Administration group, polypeptide compound 15, 40 ug/Kg, intraperitoneal injection, n=5. • 5) Administration group, polypeptide compound 20, 40 ug/Kg, intraperitoneal injection, n=5. • 6) Administration group, polypeptide compound 23, 40 ug/Kg, intraperitoneal injection, n=5. • 7) Administration group, polypeptide compound 25, 40 ug/Kg, intraperitoneal injection, n=5.
They were injected once every other day for 3 weeks.
After 3 weeks of administration, the mice were sacrificed to take samples for subsequent bioassay experiments. The serum samples from the mice were used for ALT and human IFNγ tests. Paraffin sections were prepared from partial liver tissues of the mice and stained with hematoxylin-eosin (H&E), […]/Sirius red (FG/SR) and immunohistochemical fluorescence (α-SMA), and statistics were made with Image-pro plus, Graph pad and similar software.
In the HBV induced hepatic fibrosis model, its characteristics are: inflammatory cell infiltration around the central vein area, hydropic degeneration of hepatocytes, and increased accumulation of collagen fibers in the portal area and the hepatic interlobular septum. After 3 weeks of administration, the mice were sacrificed to take samples. Blood was taken from the retrobulbar vein for detection of serological indicators, and liver tissues were taken for pathological analysis.

Substance	Relative expression of α-SMA (α-SMA/β-actin, %) [1] [%]	α-SMA expression in liver tissues (IF staining) [2]	Accumulation of collagen fibers (FG/SR staining of liver) [2]	Hepatic fibrosis and inflammation level (FG/SR and H&E staining of liver) [2]	Serum ALT [2]
His-(D-Ser)-Gln-Gly-Thr-Phe-Thr-Ser-Asp-Tyr-Ser-Lys-Tyr-Leu-Asp-Lys(PEG2-PEG2-CO(CH2)14CH3)-Arg-Arg-Ala-Gln- Asp-Phe-Val-Gln-Trp-Leu-Leu-Asn-Thr-Gly-Gly-Pro-Ser-Ser-Gly-Ala-Pro-Pro-Pro-Ser-NH2 (H[dS]QGTFTSDYSKYLDK([PEG2′-PEG2′-Palmitoyl])RRAQDFVQWLLNTGGPSSGAPPPS-NH2) [Compound 25]	39.17	significantly inhibited	significantly inhibited the accumulation of collagen fibers	decreased the hepatic fibrosis and inflammation level	decreased from that before administration
His-(D-Ser)-Gln-Gly-Thr-Phe-Thr-Ser-Asp-Tyr-Ser-Lys-Tyr-Leu-Asp-Lys(PEG2-PEG2-yGlu-CO(CH2)14CH3)-Arg-Arg-Ala- Gln-Asp-Phe-Val-Gln-Trp-Leu-Nle-Asn-Thr-Gly-Gly-Pro-Ser-Ser-Gly-Ala-Pro-Pro-Pro-Ser-NH2 (HXQGTFTSDYSKYLDKRRAQDFVQWLXNTGGPSSGAPPPS; D-Ser; Nle; PEG2-PEG2-γGlu-palmitoyl lipidation; C-terminal amide; (2)..(2) Xaa=D-Ser; (16)..(16) A side chain of Lys is linked to -PEG2-PEG2-AGlu-CO(CH2)14CH3; (27)..(27) Xaa=Nle) [Compound 20]	32.58	significantly inhibited	significantly inhibited the accumulation of collagen fibers	decreased the hepatic fibrosis and inflammation level	decreased from that before administration
His-(D-Ser)-Gln-Gly-Thr-Phe-Thr-Ser-Asp-Tyr-Ser-Lys-Tyr-Leu-Asp-Lys(PEG2-PEG2-γGlu-CO(CH2)14CH3)-Arg-Arg-Ala- Gln-Asp-Phe-Val-Gln-Trp-Leu-Leu-Asn-Thr-Gly-Gly-Pro-Ser-Ser-Gly-Ala-Pro-Pro-Pro-Ser-NH2 (H[dS]QGTFTSDYSKYLDK([PEG2′-PEG2′-γGlu-Palmitoyl])RRAQDFVQWLLNTGGPSSGAPPPS-NH2) [Compound 23]	36.15	significantly inhibited	significantly inhibited the accumulation of collagen fibers	decreased the hepatic fibrosis and inflammation level	decreased from that before administration
His-Aib-Gln-Gly-Thr-Phe-Thr-Ser-Asp-Lys(PEG2-PEG2-yGlu- CO(CH2)16CO2H)-Ser-Lys-Tyr-Leu-Asp-Glu-Arg-Arg-Ala- Gln-Asp-Phe-Val-Gln-Trp-Leu-Leu-Asp-Gly-Gly-Gly-Pro-Ser-Ser-Gly-Ala-Pro-Pro-Pro-Ser-NH2 (H[Aib]QGTFTSDK([PEG2′-PEG2′-γGlu-C18 diacid])SKYLDERRAQDFVQWLLDGGGPSSGAPPPS-NH2) [Compound 5]	37.04	significantly inhibited	significantly inhibited the accumulation of collagen fibers	decreased the hepatic fibrosis and inflammation level	decreased from that before administration

Reference: patent US20230364194A1, “GLP-1R/GCGR Dual Target Agonist Polypeptide Derivative for Treatment of Hepatic Fibrosis Associated with Viral Hepatitis” (Shenzhen Turier Biotech. Co., Ltd., priority 2020, published 2023)
